This is an account of results in patent US20260224758A1, “ALPHA-SYNUCLEIN BINDERS AND METHODS OF USE” (Merck Sharp & Dohme LLC, priority 2023, published 2026).

Experiment [1] concerns the target aggregated beta amyloid in AD tissue (Homo sapiens, UniProt P05067). As to the kind of experiment: Competitive radioligand binding to pathological aggregated beta amyloid in AD tissue (Assay 2), displacement of [^3H]-105. The conditions noted are these: Aβ-rich AD frontal cortex homogenate, [^3H]-105, Kd 11.0 nM.
Procedure: Frozen human brain samples of Alzheimer's disease (AD) were purchased from Analytic Biological Services Inc. The samples were post-mortem tissue from donors with clinical diagnosis of AD and much of the white matter was dissected out of the frontal cortex in order to enrich the tissue preparations for gray matter. Brain homogenates of gray matter enriched frontal cortex were prepared by homogenizing the tissue in ice cold Phosphate Buffered Saline (PBS), pH 7.4 at 80 mg wet weight tissue per 1 ml for 45 seconds at 4° C., on setting 16 of Polytron. The homogenate was further diluted with ice cold PBS to 30 mg wet weight tissue per 1 ml and homogenized for an additional minute as described above. Homogenates were aliquoted in 5 ml/tube and stored at −70° C. until use.
Radioligand [^3H]-105, prepared as described in ACS Med. Chem. Lett., Vol. 2, pages 498-502, was used in this assay.
For Assay 2 unlabeled test compounds were dissolved in DMSO at 10 mM. Dilutions of tests compounds to various concentrations were made in 100% DMSO at 1000× final assay concentration and 0.225 μl aliquots were dispensed into assay plates. Brain homogenates were diluted to 0.5 mg/ml from original 30 mg/ml volume in Assay Buffer, and 200 μl were added to the assay plate for a final concentration of 100 ug wet weight/assay well. [^3H]-105 was prepared at 10× final concentration in Assay Buffer plus 20% DMSO and 25 μl was added to the assay plate for final assay concentration of 3.0 nM. The plates were incubated at 37° C. for 90 minutes. Unbound and bound ligand were separated by filtration of bound onto GF/B filter plates (pre-treated for 30 min with 0.1% PEI) using a Packard Filtermate and washing away unbound with 2.5 mil ice cold 5 mM Tris at pH 7.4. Filter plates were dried for 1 hr at 57° C. and 50 μl Microscint was added to each well of the plate. The plates were counted for ^3H cpm for 1 min per well using PerkinElmer TopCount.
The target in experiment [2] is T1, triton-extracted alpha-synuclein from PD Tissue (Homo sapiens, UniProt P37840).
T1 construct: tissue Analytic Biological Services Inc; host or cells: human PD temporal cortex grey matter, Triton X-100 insoluble pellet
The experiment can be described thus: Alpha-synuclein tissue homogenate binding assay (Assay 1), displacement of [^3H]-1000. The following applies: for Selectivity ratio (Assay 2/Assay 1): Aβ Tissue Ki / α-synuclein Tissue Ki; for Ki: read-out: α-synuclein Tissue Ki (Assay 1). On the procedure:
Frozen human brain tissues from PD patients were purchased from Analytic Biological Services Inc. The samples were post-mortem tissues from donors with clinical diagnosis of late stage of PD. Alpha-synuclein, tau and amyloid burden was determined through a combination of immunohistochemistry on frozen thin coronal sections, as well as alpha Lisa-based quantification of protein levels in a detergent insoluble protein fraction. A tissue sample of temporal cortex was identified from one donor as having moderate to high alpha-synuclein burden, low amyloid and minimal to no tau pathology. The detergent insoluble fraction of temporal cortex from this patient was used to support homogenate binding studies. Grey matter was dissected out of the temporal cortex tissue with a dissecting blade and minced with fine dissecting scissors. […] Homogenates were centrifuged at 100,000×g for 45 minutes. The pellet was resuspended in TBS-TX buffer, using a Polytron at highest setting for 30 seconds at 4° C. Homogenates were centrifuged at 100,000×g for 45 minutes and the pellet was resuspended in TBS-TX buffer. A BCA protein assay was performed on the final homogenate to determine the protein concentration. […] For displacement a-synuclein binding assay, compounds and control were solvated in dimethyl sulfoxide (DMSO) and transferred using focused acoustic energy by an Echo 655 liquid handling instrument (Beckman Coulter, Indianapolis, IN) into designated wells of uniquely bar coded 96-well v-bottom low binding polypropylene microplates (Thermo Scientific, 249946). Compound dose response curves were prepared in a 10-point, 3-fold fashion within columns 2-11 of the microplate from high to low compound concentrations. […] Liquid-handling steps for dispensing insoluble fractions of PD brain homogenates and radioligand were performed using a Bravo automated liquid handling platform equipped with a 96LT disposable tip head (Agilent Technologies, Santa Clara. CA). […] The incubation was terminated by rapid filtration through UniFilter-96 GF/C microplates (pre-treated for 30 minutes with 0.2% Polyethylenimine at 4° C.) by using a FilterMate Harvester (PerkinElmer). […] The bottom of each UniFilter-96 GF/C microplate was adhesively sealed (PerkinElmer 6005199) prior to the addition of 50 μL MicroScint-20 liquid scintillation cocktail (PerkinElmer 6013621) to each well. A clear adhesive seal (TopSeal-A PLUS, PerkinElmer 6050185) was then applied to the top of each microplate and counted 1 minute/well on MicroBeta^2 system (PerkinElmer.

[3] abbreviates: insoluble fraction of PD brain homogenate, [^3H]-1000 3.0 nM, Kd 0.90 nM.

Like-named read-outs stand apart in the source and are kept apart here.

Sequence of aggregated beta amyloid in AD tissue (P05067 672-711 limits assumed): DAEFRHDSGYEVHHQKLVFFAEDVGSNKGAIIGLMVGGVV

In general, Ki refers to the dissociation constant of the complex between target and ligand, obtained from inhibition or displacement. Regarding `COCc1cnc(N2CCN(c3ncc(/C=C/c4ccc(-n5ccnc5)nc4)cn3)[C@@H](COC)C2)nc1` [Example 9, (R,E)-5-(2-(6-(1H-imidazol-1-yl)pyridin-3-yl)vinyl)-2-(2-(methoxymethyl)-4-(5-(methoxymethyl)pyrimidin-2-yl)piperazin-1-yl)pyrimidine], the Ki in experiment [1] was no less than 12000 nM; in experiment [2] (setting [3]) it was 0.8 nM. In experiment [2], the “Selectivity ratio (Assay 2/Assay 1)” value was 15000.
The corresponding values for `COC[C@H]1CN(c2cc(F)ccn2)CCN1c1ncc(/C=C/c2ccc(N3CCOCC3)nc2)cn1` [Example 16, (R,E)-4-(5-(2-(2-(4-(4-fluoropyridin-2-yl)-2-(methoxymethyl)piperazin-1-yl)pyrimidin-5-yl)vinyl)pyridin-2-yl)morpholine] are 450 nM, 1.6 nM and 281.
The matching figures for `COC[C@H]1CN(c2ncc(C#Cc3ccc(-n4ccnc4)nc3)cn2)CCN1c1nccc(F)n1` [Example 60, (R)-2-(4-(5-((6-(1H-imidazol-1-yl)pyridin-3-yl)ethynyl)pyrimidin-2-yl)-2-(methoxymethyl)piperazin-1-yl)-4-fluoropyrimidine]: no less than 1200 nM, 2.23 nM and 538.
The matching figures for `Cn1cc(-c2ncc(C#Cc3cnc(N4CCN(c5ncccn5)[C@@H](COCCOCCOCCF)C4)nc3)cn2)cn1` [Example 82, (R)-2-(3-((2-(2-(2-fluoroethoxy)ethoxy)ethoxy)methyl)-4-(pyrimidin-2-yl)piperazin-1-yl)-5-((2-(1-methyl-1H-pyrazol-4-yl)pyrimidin-5-yl)ethynyl)pyrimidine]: no less than 1200 nM, 1.43 nM and 840.
For `COC[C@H]1CN(c2ncc(C#Cc3ccc(-c4cnco4)nc3)cn2)CCN1c1ccnc(F)c1` [Example 64, (R)-5-(5-((2-(4-(2-fluoropyridin-4-yl)-3-(methoxymethyl)piperazin-1-yl)pyrimidin-5-yl)ethynyl)pyridin-2-yl)oxazole], the inhibition constant Ki in experiment [1] was no less than 1200 nM; in experiment [2] (setting [3]) it was 2.71 nM. In experiment [2], the “Selectivity ratio (Assay 2/Assay 1)” value amounted to 442.
In the case of `COC[C@H]1CN(c2ncc(/C=C/c3ccc(-n4ccnc4)nc3)cn2)CCN1c1ncc(CF)cn1` [Example 8, (R,E)-5-(2-(6-(1H-imidazol-1-yl)pyridin-3-yl)vinyl)-2-(4-(5-(fluoromethyl)pyrimidin-2-yl)-3-(methoxymethyl)piperazin-1-yl)pyrimidine], the inhibitory constant (Ki) in experiment [1] was no less than 12000 nM; in experiment [2] (setting [3]), 1.1 nM. Also, in experiment [2], the “Selectivity ratio (Assay 2/Assay 1)” value is 10909.
The corresponding values for `COC[C@H]1CN(c2ncc(C#Cc3ccc(-n4ccnc4)nc3)cn2)CCN1c1ncccn1` [Example 11, (R)-5-((6-(1H-imidazol-1-yl)pyridin-3-yl)ethynyl)-2-(3-(methoxymethyl)-4-(pyrimidin-2-yl)piperazin-1-yl)pyrimidine] are no less than 12000 nM, 1.1 nM and 10909.
On to `COC[C@H]1CN(c2ncc(/C=C/c3ccc(-n4ccnc4)nc3)cn2)CCN1c1ncc(F)cn1` [Example 27, (R,E)-5-(2-(6-(1H-imidazol-1-yl)pyridin-3-yl)vinyl)-2-(4-(5-fluoropyrimidin-2-yl)-3-(methoxymethyl)piperazin-1-yl)pyrimidine], for which the values for the inhibition constant Ki in experiment [1] and in experiment [2] (setting [3]) were 80 nM and 1.8 nM, respectively. The “Selectivity ratio (Assay 2/Assay 1)” value in experiment [2] was 44.
Regarding `Cn1cc(-c2ncc(C#Cc3cnc(N4CCN(c5ncncn5)[C@@H](COCCF)C4)nc3)cn2)cn1` [Example 44, (R)-2-(2-((2-fluoroethoxy)methyl)-4-(5-((2-(1-methyl-1H-pyrazol-4-yl)pyrimidin-5-yl)ethynyl)pyrimidin-2-yl)piperazin-1-yl)-1,3,5-triazine], the Ki in experiment [1] is no less than 1200 nM; in experiment [2] (setting [3]), 0.57 nM. Besides, in experiment [2], the “Selectivity ratio (Assay 2/Assay 1)” value is given as 2105.
The matching figures for `FCCOC[C@H]1CN(c2ncc(/C=C/c3ccc(-c4cnco4)nc3)cn2)CCN1c1ccncn1` [Example 42, (R,E)-5-(5-(2-(2-(3-((2-fluoroethoxy)methyl)-4-(pyrimidin-4-yl)piperazin-1-yl)pyrimidin-5-yl)vinyl)pyridin-2-yl)oxazole]: no less than 1200 nM, 0.78 nM and 1538.
The matching figures for `OC[C@H]1CN(c2ccncn2)CCN1c1ncc(/C=C/c2ccc(-n3ccnc3)nc2)cn1` [Example 24, (R,E)-(1-(5-(2-(6-(1H-imidazol-1-yl)pyridin-3-yl)vinyl)pyrimidin-2-yl)-4-(pyrimidin-4-yl)piperazin-2-yl)methanol]: 120 nM, 0.5 nM and 240.
The matching figures for `COC[C@H]1CN(c2ncc(C#Cc3ccc(-n4cnnc4F)nc3)cn2)CCN1c1ncccn1` [Example 59, (R)-5-((6-(3-fluoro-4H-1,2,4-triazol-4-yl)pyridin-3-yl)ethynyl)-2-(3-(methoxymethyl)-4-(pyrimidin-2-yl)piperazin-1-yl)pyrimidine]: no less than 1200 nM, 5.06 nM and 237.
With `COC[C@H]1CN(c2ncc(/C=C/c3ccc(-c4cnn(CCF)c4)nc3)cn2)CCN1c1ncccn1` [Example 37, (R,E)-5-(2-(6-(1-(2-fluoroethyl)-1H-pyrazol-4-yl)pyridin-3-yl)vinyl)-2-(3-(methoxymethyl)-4-(pyrimidin-2-yl)piperazin-1-yl)pyrimidine], the Ki in experiment [1] was no less than 1200 nM; in experiment [2] (setting [3]), 0.62 nM. Besides, the “Selectivity ratio (Assay 2/Assay 1)” value in experiment [2] is recorded as 1935.
The corresponding values for `COC[C@H]1CN(c2ncc(C#Cc3ccc(-n4ccnc4)nc3)cn2)CCN1c1cncc(F)n1` [Example 69, (R)-5-((6-(1H-imidazol-1-yl)pyridin-3-yl)ethynyl)-2-(4-(6-fluoropyrazin-2-yl)-3-(methoxymethyl)piperazin-1-yl)pyrimidine] are no less than 1200 nM, 6.57 nM and 183.
The matching figures for `COC[C@H]1CN(c2ncc(C#Cc3ccc(N4CC(F)C4)nc3)cn2)CCN1c1ncccn1` [Example 68, (R)-5-((6-(3-fluoroazetidin-1-yl)pyridin-3-yl)ethynyl)-2-(3-(methoxymethyl)-4-(pyrimidin-2-yl)piperazin-1-yl)pyrimidine]: no less than 1200 nM, 2.56 nM and 469.
`OC[C@H]1CN(c2ncc(C#Cc3ccc(-n4ccnc4)nc3)cn2)CCN1c1ncccn1` [Example 10, (R)-(4-(5-((6-(1H-imidazol-1-yl)pyridin-3-yl)ethynyl)pyrimidin-2-yl)-1-(pyrimidin-2-yl)piperazin-2-yl)methanol]: in experiment [1], the inhibition constant (Ki) was no less than 12000 nM. Further, in experiment [2], the “Selectivity ratio (Assay 2/Assay 1)” value came out at 2449 and the Ki came to 4.9 nM.
Regarding `COC[C@H]1CN(c2cnc(C#Cc3ccc(-n4ccnc4)nc3)c(F)n2)CCN1c1ncccn1` [Example 57, (R)-2-(4-(5-((6-(1H-imidazol-1-yl)pyridin-3-yl)ethynyl)-6-fluoropyrazin-2-yl)-2-(methoxymethyl)piperazin-1-yl)pyrimidine], the inhibition constant (Ki) was found to be 32 nM in experiment [1] and 4.41 nM in experiment [2] (setting [3]). The “Selectivity ratio (Assay 2/Assay 1)” value in experiment [2] is 7.
On to `COC[C@H]1CN(c2ccccn2)CCN1c1ncc(/C=C/c2ccc(-c3ncco3)nc2)cn1` [Example 20, (R,E)-2-(5-(2-(2-(2-(methoxymethyl)-4-(pyridin-2-yl)piperazin-1-yl)pyrimidin-5-yl)vinyl)pyridin-2-yl)oxazole], for which the Ki is no less than 12000 nM in experiment [1] and 1.7 nM in experiment [2] (setting [3]). Also, the “Selectivity ratio (Assay 2/Assay 1)” value in experiment [2] amounted to 7059.
In turn, `OC[C@H]1CN(c2cnccn2)CCN1c1ncc(/C=C/c2ccc(-n3ccnc3)nc2)cn1` [Example 23, (R,E)-(1-(5-(2-(6-(1H-imidazol-1-yl)pyridin-3-yl)vinyl)pyrimidin-2-yl)-4-(pyrazin-2-yl)piperazin-2-yl)methanol] gave an inhibition constant (Ki) in experiment [1] of no less than 12000 nM. For the same compound, in experiment [2], the “Selectivity ratio (Assay 2/Assay 1)” value is listed as 10000 and the Ki amounted to 1.2 nM.
